Source: the supplement of paper PMC11451515

Test system: P12-Ichikawa
Assay: cell viability relative to DMSO control; higher = less cytotoxic
Details: 48 h
Outline: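 NOMO1 or SEM cells were plated at 500 cells/well and P12-Ichikawa cells at 1000 cells/well in 1536-well plates (5 μl), after each leukemia line had been adapted for at least four passages in each medium. Pin dosing delivered library compounds in DMSO at 11 threefold concentrations, 47 μM to 0.79 nM. CellTiter-Glo One luminescence was read after 48 h at 37°C. Viability is reported as a per-plate percentage of DMSO wells, with cell-free wells as background.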

[1] = HPLM + 10% dialyzed FBS, 0.000781 µM
[2] = HPLM + 10% dialyzed FBS, 0.00234 µM
[3] = HPLM + 10% dialyzed FBS, 0.00702 µM
[4] = HPLM + 10% dialyzed FBS, 0.0211 µM
[5] = HPLM + 10% dialyzed FBS, 0.0632 µM
[6] = HPLM + 10% dialyzed FBS, 0.19 µM
[7] = HPLM + 10% dialyzed FBS, 0.569 µM
[8] = HPLM + 10% dialyzed FBS, 1.71 µM
[9] = HPLM + 10% dialyzed FBS, 5.12 µM
[10] = HPLM + 10% dialyzed FBS, 15.4 µM
[11] = HPLM + 10% dialyzed FBS, 46.1 µM
[12] = RPMI 5 mM glucose + 10% dialyzed FBS, 0.000781 µM
[13] = RPMI 5 mM glucose + 10% dialyzed FBS, 0.00234 µM
[14] = RPMI 5 mM glucose + 10% dialyzed FBS, 0.00702 µM
[15] = RPMI 5 mM glucose + 10% dialyzed FBS, 0.0211 µM
[16] = RPMI 5 mM glucose + 10% dialyzed FBS, 0.0632 µM
[17] = RPMI 5 mM glucose + 10% dialyzed FBS, 0.19 µM
[18] = RPMI 5 mM glucose + 10% dialyzed FBS, 0.569 µM
[19] = RPMI 5 mM glucose + 10% dialyzed FBS, 1.71 µM
[20] = RPMI 5 mM glucose + 10% dialyzed FBS, 5.12 µM
[21] = RPMI 5 mM glucose + 10% dialyzed FBS, 15.4 µM
[22] = RPMI 5 mM glucose + 10% dialyzed FBS, 46.1 µM
[23] = RPMI 5 mM glucose + 10% FBS, 0.000781 µM
[24] = RPMI 5 mM glucose + 10% FBS, 0.00234 µM
[25] = RPMI 5 mM glucose + 10% FBS, 0.00702 µM
[26] = RPMI 5 mM glucose + 10% FBS, 0.0211 µM
[27] = RPMI 5 mM glucose + 10% FBS, 0.0632 µM
[28] = RPMI 5 mM glucose + 10% FBS, 0.19 µM
[29] = RPMI 5 mM glucose + 10% FBS, 0.569 µM
[30] = RPMI 5 mM glucose + 10% FBS, 1.71 µM
[31] = RPMI 5 mM glucose + 10% FBS, 5.12 µM
[32] = RPMI 5 mM glucose + 10% FBS, 15.4 µM
[33] = RPMI 5 mM glucose + 10% FBS, 46.1 µM

| SMILES | cell viability [1] [%] | cell viability [2] [%] | cell viability [3] [%] | cell viability [4] [%] | cell viability [5] [%] | cell viability [6] [%] | cell viability [7] [%] | cell viability [8] [%] | cell viability [9] [%] | cell viability [10] [%] | cell viability [11] [%] | cell viability [12] [%] | cell viability [13] [%] | cell viability [14] [%] | cell viability [15] [%] | cell viability [16] [%] | cell viability [17] [%] | cell viability [18] [%] | cell viability [19] [%] | cell viability [20] [%] | cell viability [21] [%] | cell viability [22] [%] | cell viability [23] [%] | cell viability [24] [%] | cell viability [25] [%] | cell viability [26] [%] | cell viability [27] [%] | cell viability [28] [%] | cell viability [29] [%] | cell viability [30] [%] | cell viability [31] [%] | cell viability [32] [%] | cell viability [33] [%] |
| --- | --- | --- | --- | --- | --- | --- | --- | --- | --- | --- | --- | --- | --- | --- | --- | --- | --- | --- | --- | --- | --- | --- | --- | --- | --- | --- | --- | --- | --- | --- | --- | --- | --- |
| ClC1=CC=C2N/C3=N/C(=O)CN3CC2=C1Cl | 120 | 122 | 126 | 130 | 115 | 122 | 118 | 115 | 114 | 112 | 82.2 | 125 | 119 | 130 | 117 | 124 | 127 | 118 | 118 | 107 | 105 | 68.7 |  |  |  |  |  |  |  |  |  |  |  |
| O=C1CCC[C@@H]2[C@H]3CCCN4CCC[C@@H](CN12)[C@@H]34 | 78.4 | 85.5 | 83.3 | 87.4 | 96.1 | 92.1 | 83.1 | 88.2 | 92.5 | 98.1 | 93.4 | 74.9 | 79 | 79.7 | 81.8 | 86.8 | 83.7 | 80.1 | 86.2 | 76.9 | 84.7 | 80.9 | 83.7 | 83.6 | 77.8 | 87.6 | 88.9 | 85.7 | 76.3 | 86 | 79.3 | 87.6 | 75.7 |
| O=C(CS(=O)Cc1ccco1)NC/C=C\COc1cc(CN2CCCCC2)ccn1 (configuration not stated) | 90.8 | 98.6 | 100 | 98 | 101 | 102 | 107 | 104 | 107 | 112 | 100 | 78.9 | 87.4 | 87.2 | 97.4 | 101 | 94.4 | 95.9 | 92.3 | 93.2 | 105 | 99.3 | 87.7 | 88 | 93.3 | 99.8 | 104 | 98.7 |  | 96.4 | 109 | 94.4 | 109 |
| CC[N+](CC)(CC)CCOc1cccc(OCC[N+](CC)(CC)CC)c1OCC[N+](CC)(CC)CC | 116 | 109 | 101 | 107 | 127 | 120 | 98.9 | 91.6 | 100 | 107 | 97 | 108 | 101 | 108 | 109 | 120 | 109 | 100 | 104 | 103 | 95.2 | 100 | 124 | 115 | 112 | 124 | 114 | 115 | 107 | 108 | 111 | 110 | 103 |
| c1ccc2c(Cc3c[nH]c4ccccc34)c[nH]c2c1 | 94.9 | 101 | 93.7 | 95.8 | 97 | 95.4 | 95.1 | 91.1 | 89.7 | 87.4 | 29.9 | 86 | 94.3 | 92.2 | 84.8 | 89.6 | 92 | 96.8 | 94 | 86.3 | 85.2 | 38 | 100 | 93.3 | 95 | 92.2 | 82.2 | 90.4 | 86.7 | 91.2 | 88.7 | 89.3 | 32.8 |
| OC[C@H]1O[C@H](C[C@@H]1O)N2\C=C(F)/C(=O)NC2=O | 123 | 109 | 110 | 92.4 | 78.1 | 47.9 | 33.3 | 28.5 | 20.6 | 22.7 | 11 | 124 | 109 | 116 | 109 | 76.9 | 45.7 | 34.3 | 30.3 | 21.8 | 27.6 | 19.4 | 115 | 104 | 101 | 106 | 92.2 | 55.2 | 51.6 | 38.1 | 25.6 | 33.6 | 30.1 |
| O=[N+]([O-])c1ncc[nH]1 | 93.7 | 88 | 88.2 | 83.4 | 97 | 102 | 88.4 | 81 | 84.5 | 75.4 | 80.5 | 88.7 | 86.1 | 82.7 | 98.4 | 104 | 99.9 | 65.7 | 78 | 98 | 71 | 80.5 | 88 | 91 | 84.6 | 84.8 | 91.6 | 86.9 | 78 | 74.1 | 81 | 70.5 | 78.8 |
| CC(C)(F)C[C@H](N[C@@H](c1ccc(-c2ccc([S+](C)(=O)[O-])cc2)cc1)C(F)(F)F)C(=O)NC1(C#N)CC1 | 106 | 120 | 111 | 112 | 115 | 117 | 124 | 115 | 112 | 110 | 98.7 | 93.8 | 115 | 106 | 106 | 121 | 111 | 111 | 111 | 109 | 101 | 99.5 | 99.9 | 114 | 111 | 121 | 120 | 111 | 112 | 109 | 113 | 106 | 98.7 |
